Entries after “also recorded” stand apart in the source; their conditions may differ. Like-named read-outs stand apart in the source and are kept apart here.
Experiments:
[1] = tested on: human patients, abdominal surgery; conditions: 6 mg and 12 mg oral doses, started at least two hours prior to abdominal surgery; cited from earlier work
[2] = biological target: mu opioid receptor (Homo sapiens, UniProt P35372); conditions: Alvimopan compared with methylnaltrexone; as characterized by Adolor Corporation; cited from earlier work
mu opioid receptor, sequence (P35372 whole entry, species assumed): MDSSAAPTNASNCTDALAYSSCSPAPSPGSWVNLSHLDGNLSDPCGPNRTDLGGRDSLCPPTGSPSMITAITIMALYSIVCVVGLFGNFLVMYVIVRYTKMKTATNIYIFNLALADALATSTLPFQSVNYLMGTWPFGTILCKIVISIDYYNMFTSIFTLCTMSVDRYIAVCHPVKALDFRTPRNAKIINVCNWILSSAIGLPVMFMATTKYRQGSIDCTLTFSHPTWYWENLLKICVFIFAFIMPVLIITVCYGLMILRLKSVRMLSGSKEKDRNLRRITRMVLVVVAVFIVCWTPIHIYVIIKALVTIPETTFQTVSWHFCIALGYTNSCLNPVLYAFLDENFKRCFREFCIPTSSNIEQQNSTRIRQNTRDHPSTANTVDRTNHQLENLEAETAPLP

[3] = white crystalline powder as provided; cited from earlier work
[4] = tested on: rat; conditions: cited from earlier work
[5] = tested on: human segmental colectomy patients; assay: Phase 2 randomized, double-blind, placebo-controlled study of IV MNTX after segmental colectomy; type: in vivo
Excerpt: The following non-limiting examples relate to a phase 2 human study using MNTX to reduce the duration of gastrointestinal dysfunction following segmental colectomy. The primary objective of this study was to assess the activity of parenterally administered MNTX every six hours compared with placebo in shortening the duration of or preventing post-operative ileus in patients who have undergone segmental colectomies. Evidence of activity of MNTX was based on at least one or more of the following: the time to tolerance of liquids, time to first bowel movement, time to tolerance of solid foods, time to the combination of first solid meal and bowel movement, time to first micturition post foley catheter removal, and time to hospital discharge. The use of daily anti-emetic and opioid medication was also assessed.
A total of 65 patients at eight surgical centers participated in the phase 2 randomized, double-blind, placebo-controlled study. Subjects underwent segmental colectomies primarily due to cancer or diverticular disease. Shortly after surgery (90 minutes post surgery), study medication (0.3 mg/kg MNTX or placebo) was administered intravenously at six-hour intervals for a maximum of seven days.
The study was a double-blind, randomized parallel group study designed to evaluate the safety and activity of IV (intravenous) MNTX in the treatment of patients who are undergoing segmental colectomies via laparotomy and the duration of their post-operative ileus. Patients were randomized to either placebo (saline) or a fixed dose of IV MNTX of 0.30 mg/kg patient body weight in 50 cc of 0.9% normal saline hung as an IV piggyback (IVPB) to the main line and infused over twenty (20) minutes every six (6) hours until twenty-four (24) hours after the patient could tolerate solid foods, until discharged from the hospital, or for a maximum of seven (7) days. These time points for study drug discontinuation were selected in order to analyze the secondary efficacy endpoints of IV MNTX as well as the primary endpoints.
Day of Surgery. Within twenty-four (24) hours of surgery, patients were randomly assigned to either the MNTX 0.30 mg/kg or placebo (saline) dose group.
Prior to the first study drug administration the patient's vital signs were monitored. Patients were asked to assess their level of nausea, abdominal cramping, pain, and itching based on a verbal numerical scale. Within 90 minutes from the end of the surgical procedure, defined as the surgical end time recorded on the operating room (OR) sheet (regardless of whether a patient was in the PACU or not) the first dose of study drug was administered intravenously through an already existing IV line, hung as an IV piggyback (IVPB) to the main line, over 20 minutes. If the IV line was being used for other medications, i.e. antibiotics, electrolyte supplements, etc., the line was flushed with 20 cc of the main IV fluid prior to the hanging of study product. The patient's vital signs were monitored at the end of the study medication infusion, 20 min, 60 min, 120 min and 180 minutes after this first IV study drug administration. Patients were asked to assess their level of nausea, abdominal cramping, pain, and itching based on a verbal numerical scale and whether or not they had vomited 60 minutes after the end of the first study drug administration.
Inability to tolerate clear liquids was defined as nausea and/or vomiting within the first 60 minutes of the challenge.
The patient's diet was advanced to full liquids (≧500 cc of liquid) at the meal following the patient's tolerance of their first 30 cc of water by mouth. The patient's diet was then advanced to solid foods at the meal following their tolerance of full liquids. Tolerance of full liquids was defined as no clinically significant nausea and no vomiting within the first hour of the conclusion of the full liquids. […]

[6] = segmental colectomy patients, MNTX 0.30 mg/kg IV every 6 hours, on average
[7] = segmental colectomy patients, on average
[8] = sigmoidectomy patients, MNTX IV after surgery, on average

Row | SMILES | Outcome of phase III human studies on post-operative gastrointestinal dysfunction end-points [1] | Affinity for mu opioid receptor, relative [2] | Solubility in water [3] | Recovery of gastrointestinal transit ([4]; MNTX intravenously 90 minutes before surgery) | Recovery of gastrointestinal transit ([4]; MNTX intravenously closer to surgery (60 minutes or 45 minutes before surgery)) | Time to first bowel movement ([5]; segmental colectomy patients, MNTX 0.30 mg/kg IV every 6 hours started after surgery, on average) | Time to actual discharge [5, 6] | Time to discharge eligibility [5, 6] | Time to first flatus [5, 6] | Time to first full liquid diet [5, 6] | Time to first solid meal [5, 6] | Time to first solid meal and bowel movement (solids in-solids out) [5, 6] | Time to first use of an anti-emetic [5, 6] | Time to first anti-emetic use, delayed relative to absence of drug [5, 7] | Time to first flatus, accelerated relative to absence of drug [5, 7] | Time to first solid meal ([5]; sigmoidectomy patients, MNTX IV after surgery) | Time to actual discharge [5, 8] [h] | Time to discharge eligibility [5, 8] | Time to first bowel movement [5, 8] | Time to first flatus [5, 8]
1 | C[C@H]1CN(C[C@H](Cc2ccccc2)C(=O)NCC(=O)O)CC[C@@]1(C)c1cccc(O)c1 [Alvimopan] | inconsistent results that lacked statistical significance for many of the end-points; also recorded: inconsistent and lack statistical significance with respect to many of the end-points | greater affinity and selectivity than methylnaltrexone |  |  |  |  |  |  |  |  |  |  |  |  |  |  |  |  |  | 
2 | C[N+]1(CC2CC2)CC[C@]23c4c5ccc(O)c4O[C@H]2C(=O)CC[C@@]3(O)[C@H]1C5 (stereo partly drawn) [MNTX, N-cyclopropylmethylnoroxy-morphine-methobromide] |  | lower mu opioid receptor affinity than Alvimopan | freely soluble in water | signs of partial recovery of gastrointestinal transit | not | about 97 hours | about 140 hours | about 119 hours | about 88 hours | about 70 hours | about 100 hours | about 124 hours | about 26 hours | about 10 hours | about 8 hours | about 93 hours | ≤ 125 | about 105 hours | about 94 hours | about 85 hours

Source: US20060205753A1, “Use of methylnaltrexone and related compounds to treat post-operative gastrointestinal dysfunction” (priority 2005, published 2006)
